This is an account of results in ChEMBL document CHEMBL1152844, “Synthesis and anti-HIV studies of 2- and 3-adamantyl-substituted thiazolidin-4-ones” (Eur J Med Chem, 2009).

pEC50, pIC50: −log10 of the molar value. The source made the active and inactive calls. The calls are words filed in the database; no cut-off is given here.

As a reminder, the pIC50 is the negative decadic logarithm of the IC50, by convention in mol/L. What is called CC50 is the concentration that lowers cell viability or growth by half. The pEC50 is the negative decadic logarithm of the EC50, by convention in mol/L.

The subject of series [1] is Coxsackievirus B4. Briefly: Antiviral activity against Coxsackievirus B4 infected in african green monkey Vero cells. Type of series: functional, organism-based.
Series [2] relates to Feline coronavirus. Briefly: Antiviral activity against Feline coronavirus infected in crandel feline kidney cells. Format: functional, organism-based.
The subject of series [3] is Human respirovirus 3. Briefly: Antiviral activity against Parainfluenza virus type 3 infected in african green monkey Vero cells. Format: functional, organism-based.
Series [4] deals with Human immunodeficiency virus type 1 reverse transcriptase (Human immunodeficiency virus 1, UniProt Q72547). Briefly: Inhibition of HIV1 3B reverse transcriptase after 30 mins.
Series [5] relates to Human alphaherpesvirus 2. Briefly: Antiviral activity against Herpes simplex virus type 2 infected in HEL cells. Type of series: functional, organism-based.
Series [6] has as its system Vaccinia virus. Briefly: Antiviral activity against Vaccinia virus infected in HEL cells. Conditions: Orthopoxvirus vaccinia. Format: functional, organism-based.
Series [7] deals with Influenza A virus. Briefly: Antiviral activity against Influenza virus type A H1N1 infected in MDCK cells. Format: functional, organism-based.
Series [8] concerns Vesicular stomatitis virus. Briefly: Antiviral activity against Vesicular stomatitis virus infected in human HeLa cells. Type of series: functional, organism-based.
For series [9], the system named is Respiratory syncytial virus. Briefly: Antiviral activity against Respiratory syncytial virus infected in human HeLa cells. Format: functional, organism-based.
Series [10] has as its system Punta Toro virus. Briefly: Antiviral activity against Punta Toro virus infected in african green monkey Vero cells. Type of series: functional, organism-based.
Series [11] is described as follows: Inhibition of HIV2 ROD reverse transcriptase after 30 mins. On the set-up: species or system Human immunodeficiency virus 2.
The subject of series [12] is Sindbis virus. Briefly: Antiviral activity against Sindbis virus infected in african green monkey Vero cells. Type of series: functional, organism-based.
Series [13] relates to Coxsackievirus B4. Briefly: Antiviral activity against Coxsackievirus B4 infected in human HeLa cells. Format: functional, organism-based.
In series [14] the test system is Human alphaherpesvirus 1. Briefly: Antiviral activity against Herpes simplex virus type 1 infected in HEL cells. Format: functional, organism-based.
For series [15], the system named is Mammalian orthoreovirus 1. Briefly: Antiviral activity against Reovirus 1 infected in african green monkey Vero cells. Format: functional, organism-based.
Series [16] has as its system Vesicular stomatitis virus. Briefly: Antiviral activity against Vesicular stomatitis virus infected in HEL cells. Type of series: functional, organism-based.
Series [17] relates to Influenza A virus. Briefly: Antiviral activity against Influenza virus type A H3N2 infected in MDCK cells. Format: functional, organism-based.
Series [18] relates to Influenza B virus. Briefly: Antiviral activity against Influenza virus type B infected in MDCK cells. Format: functional, organism-based.
The nature of series [19]: Selectivity index, ratio of CC50 for human CEM cells to EC50 for HIV1 3B. The conditions noted are these: read-out: Ratio CC50/EC50. Type of series: toxicity, cell-based, CCRF-CEM.
For series [20], the system named is CCRF-CEM. Briefly: Cytotoxicity against HIV-infected human CEM cells. The conditions noted are these: ccrf-cem. Type of series: cell-based.
The test system of series [21] is Human immunodeficiency virus 2. Briefly: Antiviral activity against HIV2 ROD infected in human CEM cells assessed as inhibition of virus-induced cytopathicity after 4 days. Format: functional, organism-based. Conditions: Human immunodeficiency virus 2, ROD, CCRF-CEM, 96 h. On the technique in general: Protection from cytopathic effect is a common read-out in antiviral testing.

Series [22] concerns Human immunodeficiency virus 1. Briefly: Antiviral activity against HIV1 3B infected in human CEM cells assessed as inhibition of virus-induced cytopathicity after 4 days. Type of series: functional, organism-based. The conditions noted are these: Human immunodeficiency virus 1, 3B, CCRF-CEM, 96 h.

Regarding `Cc1cc(C)nc(N2C(=O)CS[C@@H]2C23CC4CC(CC(C4)C2)C3)c1`, the outcome in series [1], in series [2], in series [3], in [5], in [6] and in series [7] was inactive. Moreover, the outcome in series [8], in [9], in series [10], in series [12], in [13] and in series [14] was inactive. For the same molecule, the outcome in series [15], in series [16], in series [17] and in series [18] was inactive. Further, the pIC50 in [4] was 4.87; in series [11], below 3.22.

On to `COc1cc(C2SCC(=O)N2CCC23CC4CC(CC(C4)C2)C3)cc(OC)c1OC` (stereo not drawn), for which the outcome in series [1], in [2], in series [3], in series [5], in series [6] and in series [7] was inactive. Moreover, the result in series [8], in series [9], in series [10], in series [12], in [13] and in series [14] was inactive. The result in series [15], in series [16], in [17] and in [18] was inactive. Besides, in series [19], the selectivity ratio was found to be 1.4. The molecule further displayed a CC50 in series [20] of 11.3 µM. In addition, the pEC50 is 5.19 in [21] and 5.11 in series [22].

Regarding `Cc1cc(C)nc(N2C(=O)CSC2CC23CC4CC(CC(C4)C2)C3)n1` (stereo not drawn), the result in series [1], in series [2], in series [3], in series [5], in series [6] and in series [7] was inactive. Also, the result in series [8], in series [9], in series [10], in [12], in series [13] and in series [14] was inactive. Moreover, the result in series [15], in series [16], in series [17] and in series [18] was inactive. The selectivity ratio in series [19] came out at 3. The molecule also displayed a CC50 in series [20] of 27 µM. The figures for the pEC50 in series [21] and in series [22] were 4.52 and 5.07, respectively.

Consider `Cc1cc(C)nc(N2C(=O)CSC2C23CC4CC(CC(C4)C2)C3)n1` (stereo not drawn), for which the result in series [1], in series [2], in series [3], in [5], in [6] and in series [7] was inactive. Further, the result in [8], in series [9], in [10], in [12], in series [13] and in series [14] was inactive. In addition, the outcome in series [15], in series [16], in [17] and in series [18] was inactive. For the same molecule, the selectivity ratio in [19] is 182. It took 122 µM to reach half-maximal cytotoxicity in series [20] (CC50). Further, the figures for the pEC50 in series [21] and in series [22] were at most 4.24 and 6.17, respectively.

For the molecule `Cc1cc(N2C(=O)CSC2CC23CC4CC(CC(C4)C2)C3)nc(C)n1` (stereo not drawn), the outcome in series [1], in [2], in series [3], in series [5], in series [6] and in [7] was inactive. The result in [8], in series [9], in series [10], in series [12], in series [13] and in [14] was inactive. Moreover, the outcome in series [15], in series [16], in [17] and in series [18] was inactive. In series [19], the selectivity ratio is below 1.9. Besides, the CC50 in [20] turned out to be 22.1 µM. Moreover, the pEC50 in [21] and in series [22] was at most 4.95 throughout.

Consider `Cc1cc(Cl)nc(N2C(=O)CSC2CC23CC4CC(CC(C4)C2)C3)n1` (stereo not drawn), for which the outcome in series [1], in series [2], in series [3], in series [5], in [6] and in [7] was inactive. For the same molecule, the result in series [8], in [9], in [10], in series [12], in series [13] and in series [14] was inactive. Moreover, the outcome in [15], in series [16], in [17] and in series [18] was inactive. Moreover, the selectivity ratio in series [19] is below 1.9. The molecule also registered a CC50 in [20] of 102 µM. Besides, the pEC50 is at most 4.28 in [21] and below 4.28 in series [22].

As to `Cc1cc(Cl)nc(N2C(=O)CSC2C23CC4CC(CC(C4)C2)C3)n1` (stereo not drawn), the outcome in [1], in series [2], in series [3], in [5], in series [6] and in [7] was inactive. For the same molecule, the outcome in [8], in series [9], in series [10], in series [12], in series [13] and in series [14] was inactive. Further, the result in [15], in [16], in series [17] and in series [18] was inactive. Moreover, the selectivity ratio in [19] was below 5. In series [20], this molecule gave a CC50 above 275 µM. In addition, the pEC50 in series [21] is 3.92; in [22], at most 4.26.

With `O=C1CSC(c2c(F)cccc2Cl)N1CCC12CC3CC(CC(C3)C1)C2` (stereo not drawn), the result in series [1], in [2], in series [3], in series [5], in series [6] and in series [7] was inactive. The outcome in [8], in series [9], in series [10], in series [12], in series [13] and in series [14] was inactive. Moreover, the outcome in [15], in series [16], in [17] and in [18] was inactive. The selectivity ratio in [19] came out at 4.7. In [20], this molecule displayed a CC50 of 18.5 µM. Further, the pEC50 in [21] was at most 5.00; in [22], 5.42.

As to `Cc1cc(N2C(=O)CSC2C23CC4CC(CC(C4)C2)C3)nc(C)n1` (stereo not drawn), the outcome in [1], in series [2], in series [3], in series [5], in series [6] and in series [7] was inactive. The result in series [8], in series [9], in series [10], in series [12], in series [13] and in [14] was inactive. For the same molecule, the outcome in [15], in series [16], in series [17] and in [18] was inactive. Besides, in series [19], the selectivity ratio was below 1.6. The molecule further displayed a CC50 in series [20] of 94 µM. Also, the pEC50 in series [21] and in [22] was at most 4.24 in each case.
